Data set [1] concerns ENT-70. As to the kind of experiment: Enterovirus-70 MRC5 Cell Culture Assay. The class given is cell-based, Enterovirus strain 70. How it is done:
The Echovirus strain 11 (ECHO-11) and Enterovirus strain 70 (ENT-70) were purchased from American Type Culture Collection (ATCC). Virus stocks were propagated and antiviral assays were performed in MRC5 cells (ATCC). Cells were grown in Minimal Essential Medium with 10% fetal bovine serum.
(§1) The ability of compounds to protect cells against ECHO-11 or ENT-70 infection was measured by the XTT dye reduction method. Briefly, MRC5 cells were infected with ECHO-11 or ENT-70 at a multiplicity of infection (m.o.i.) of 0.0013 (ECHO-11) and 0.0017 (ENT-70) or mock-infected with medium only. Infected or uninfected cells were resuspended at 2×10^4 cells per mL and incubated with appropriate concentrations of drug. One day later, XTT/PMS was added to test plates, and the amount of formazan produced was quantified spectrophotometrically at 450/650 nm. The EC50 was calculated as the concentration of drug that increased the percentage of formazan production in drug-treated, virus-infected cells to 50% of that produced by drug-free, uninfected cells. The 50% cytotoxic dose (CC50) was calculated as the concentration of drug that decreased the percentage of formazan produced in drug-treated, uninfected cells to 50% of that produced in drug-free, uninfected cells. The therapeutic index (TI) was calculated by dividing the CC50 by the EC50.

A short description of data set [2]: in vitro. The class given is cell-based. Particulars: human, hi-hela cells. As to the method:
as §1, with “CVA-21” for “ECHO-11”, “CVB-3” for “ENT-70”, “HI-HeLa” for “MRC5”, “0.05 (CVA-21)” for “0.0013 (ECHO-11)”, “0.08 (CVB-3)” for “0.0017 (ENT-70)”, “4×10^4” for “2×10^4”
(§2) The Coxsackie strains A-21 (CVA-21) and B-3 (CVB-3) were purchased from American Type Culture Collection (ATCC). Virus stocks were propagated and antiviral assays were performed in HI-HeLa cells (ATCC). Cells were grown in Minimal Essential Medium with 10% fetal bovine serum.

Data set [3] concerns the target T1, Rhinovirus 3C protease (RVP) serotype 16 (Human rhinovirus 16, UniProt Q82122).
T1 construct: Recombinant Rhinovirus 3C proteases from serotypes 14, 16, 2 or 89 were prepared; made in house
In words: Inhibition of Rhinovirus Protease, serotype 16 (FRET assay). The data set is classed as biochemical. To be noted: enzyme start experiments, read-out: kobs/I.

Data set [4] addresses T2, Rhinovirus 3C protease (RVP) serotype-14 (Human rhinovirus 14, UniProt P03303).
T2 construct: Recombinant Rhinovirus 3C proteases from serotypes 14, 16, 2 or 89 were prepared; made in house
In words: Inhibition of Rhinovirus Protease, serotype 14 (FRET assay). The class given is biochemical. To be noted: read-out: kobs/I. In outline: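 Recombinant HRV 3C protease (50–100 nM) in 50 mM tris pH 7.6, 1 mM EDTA, 2% DMSO, with ~1 μM DABCYL-GRAVFQGPVG-EDANS FRET substrate; cleavage read as fluorescence increase. Ki: compound and enzyme preincubated 10 min at 30° C before substrate start; kobs/I from enzyme-start progress curves. Values are percent inhibition at stated μM, or Ki.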

Data set [5] has as its system CVA-21. As to the kind of experiment: Anticoxsackieviral HI-HeLa Cell Culture Assay, CVA-21. The class given is cell-based, Coxsackie strain A-21. As to the method:
as §1, with “CVA-21” for “ECHO-11”, “CVB-3” for “ENT-70”, “HI-HeLa” for “MRC5”, “0.05 (CVA-21)” for “0.0013 (ECHO-11)”, “0.08 (CVB-3)” for “0.0017 (ENT-70)”, “4×10^4” for “2×10^4”
as §2

In data set [6] the test system is CVB-3. In words: Anticoxsackieviral HI-HeLa Cell Culture Assay, CVB-3. The class given is cell-based, Coxsackie strain B-3. How it is done:
as §1, with “CVA-21” for “ECHO-11”, “CVB-3” for “ENT-70”, “HI-HeLa” for “MRC5”, “0.05 (CVA-21)” for “0.0013 (ECHO-11)”, “0.08 (CVB-3)” for “0.0017 (ENT-70)”, “4×10^4” for “2×10^4”
as §2

T2 sequence (P03303 1538-1719): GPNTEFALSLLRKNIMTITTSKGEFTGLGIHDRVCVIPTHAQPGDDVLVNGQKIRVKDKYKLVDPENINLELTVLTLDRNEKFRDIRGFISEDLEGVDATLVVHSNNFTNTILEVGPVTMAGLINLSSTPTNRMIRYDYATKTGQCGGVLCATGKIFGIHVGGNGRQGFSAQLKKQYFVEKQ
T1 sequence (Q82122 1511-1693): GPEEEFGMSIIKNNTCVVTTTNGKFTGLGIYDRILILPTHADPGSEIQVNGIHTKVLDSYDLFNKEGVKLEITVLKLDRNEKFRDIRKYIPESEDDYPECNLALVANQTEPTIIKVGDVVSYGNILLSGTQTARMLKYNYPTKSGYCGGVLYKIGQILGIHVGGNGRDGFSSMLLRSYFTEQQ

`CCOC(=O)/C=C/[C@H](CCC(N)=O)NC(=O)[C@H](Cc1ccccc1)N(C)C(=O)[C@H](CC(C)C)NC(=O)OCc1ccccc1` [Compound 2, Ethyl-3-(CBZ-L-Leu-L-N-Me-Phe-L-Gln)-E-Propenoate]: the TI stood at 93 in data set [1] (CC50/EC50, ENT-70, 1440 min); 17 in data set [5] (CC50/EC50, CVA-21); 28 in data set [6] (CC50/EC50, CVB-3). Besides, the concentration for a half-maximal effect (EC50) in data set [1] (Enterovirus, 24 h, ENT-70 infection of MRC5 cells, XTT, one day) was 0.6 µM; in data set [5] (24 h, CVA-21 infection of Hi-HeLa cells, XTT, one day), 3.3 µM; in data set [6] (24 h, CVB-3 infection of Hi-HeLa cells, XTT, one day), 2 µM. The compound further yielded a CC50 at 24 h in data set [2] of 56 µM. The kinact/KI worked out at 1040 M⁻¹ s⁻¹ in data set [3] and 5300 M⁻¹ s⁻¹ in data set [4].

In general, EC50 refers to the midpoint of the concentration-response curve. Low values mean an effect from little substance, high ones a need for much substance. Broadly, the CC50 is the concentration at which the toxic effect on the cells reaches its halfway point.

The values are drawn from patent US5962487A, “Antipicornaviral compounds and methods for their use and preparation” (Agouron Pharmaceuticals, Inc., priority 1997, dated 1999).
